Source: US12036193B2, “Synergistic bioactive compositions for treating neurological disorders” (priority 2019, dated 2024)

What was measured:
[1] = system: TNF alpha; experiment: Rat TNF alpha level after global cerebral ischemia/reperfusion; assay type: in vivo, Wistar rats; conditions: mean ± SEM, n=6; oral 10 days, 30 min ischemia on 7th day + 72 hrs reperfusion; Standard 9.3, Agmatine sulphate 310, Bio-optimized PEA 372, combination 310+372 mg/kg; I/R control 172.17 ± 6.35
[2] = system: Interleukin - 6; experiment: Rat Interleukin-6 level after global cerebral ischemia/reperfusion; assay type: in vivo, Wistar rats; conditions: mean ± SEM, n=6; oral 10 days, 30 min ischemia on 7th day + 72 hrs reperfusion; Standard 9.3, Agmatine sulphate 310, Bio-optimized PEA 372, combination 310+372 mg/kg; I/R control 121.83 ± 1.65
[3] = Rat body weight in global ischemia reperfusion induced brain injury study; conditions: n=6, Standard 9.3 mg/kg, Agmatine sulphate 310 mg/kg, Bio-optimized PEA 372 mg/kg, combination 310+372 mg/kg, p.o. daily
[4] = Rat feed consumption in global ischemia reperfusion induced brain injury study; conditions: Standard 9.3 mg/kg, Agmatine sulphate 310 mg/kg, Bio-optimized PEA 372 mg/kg, combination 310+372 mg/kg, p.o. daily

For `N=C(N)NCCCCN.O=S(=O)(O)O` [Agmatine sulphate, 1-(4-Aminobutyl)guanidine sulfate], the “TNF alpha Level” value [1] was 142.00 ± 1.53 pg/mL, the “Interleukin - 6 Levels” value [2] was 91.39 ± 0.92 pg/mL and the “Body Weight, Week 01” value ([3]; Week 01, mean ± SEM) was 224.33 ± 0.42 gm. For the same compound, the “Body Weight, Basal” value ([3]; basal, mean ± SEM) was 215.00 ± 0.73 gm and the “Feed Consumption, Week 01” value [4] was 99.57 ± 1.19 gm.
